In PMC12491243, “Rational design of indoleamine 2,3-dioxygenase 1 (IDO1) inhibitors featuring 1,2,3-triazole derivatives with enhanced anti-inflammatory and analgesic efficacy” (Frontiers in Pharmacology, 2025):

What was measured:
Assay type in all cases: in vivo
TNF-α = experiment: ELISA of TNF-α in inflamed paw, spinal cord and serum of CFA mice; conditions: ipsilateral L4–L6 spinal cord and serum, 72 h after CFA
Description: To determine whether the analgesic effects of Compound 14e are associated with reduced local and systemic inflammation, we measured the levels of inflammatory factors in the inflamed paw tissue, ipsilateral L4–L6 spinal cord, and peripheral blood. The results indicated a significant increase in the protein levels of TNF-α and IL-1β in the inflamed paw, spinal cord, and serum of mice in the CFA group compared to the vehicle group.
FIGURE 6 Compound 14e reduces TNF-α and IL-1β in the inflamed hindpaw skin, spinal cord and peripheral blood 72 h after CFA-induced inflammation. (A,D) Expression levels of TNF-α and IL-1β in the inflamed skin tissue. (B,E) Expression levels of TNF-α and IL-1β in ipsilateral L4–6 spinal cord. […]
Under anesthesia with 1% pentobarbital sodium, serum was obtained from the mice orbits, after coagulation at room temperature for 2 h, the sample was then centrifuged at 1,000 × g for 20 min at 4 °C, with the supernatant collected. […] The protein concentrations were determined using a bicinchoninic acid (BCA) kit (Pierce Biotechnology Inc.). The following inflammatory factors were measured using Mouse TNF-α ELISA kit (EM0183) and IL-1β ELISA kit (EM0109) obtained from Wuhan Fine Biotechnology Company, according to the product protocols. The O.D. absorbance at 450 nm was quantified in a ultramicroplate spectrophotometer (BioTek Epoch).

KM mice = experiment: Acute toxicity test in KM mice; conditions: 500 mg/kg via gavage, 14 days
Experimental: We evaluated the safety of compound 14e using an acute toxicity test in KM mice. Male mice (8–9 weeks old) were randomly divided into a solvent control group and a 14e-treated group. The control group received an equivalent volume of solvent (5% DMSO +40% PEG300 + 1% Tween-80 + 54% saline) via gavage, while the treatment group received compound 14e solution (500 mg/kg). Beginning on day 1 after administration, body weight and general appearance were monitored for 14 days. At the end of the study, blood samples were collected to determine serum levels of Alanine Aminotransferase (ALT) and Aspartate Aminotransferase (AST). In addition, representative organs (heart, liver, spleen, lung, and kidneys) were excised, weighed, and used to calculate organ indices (organ index = organ weight/body weight × 100%).
FIGURE 7 Acute toxicity experiments of compound 14e were conducted in mice. (A) The body wight of mice were recorded for 14 days after treatment. (B) The acute toxicity experiments examined the effects of 14e on mouse organs. (C) Effect of acute toxicity experimental studies on blood biochemical indices ALT and AST in mice.

Iba1 = experiment: Western blot of Iba1 in spinal cord of CFA mice; conditions: L4–L6 spinal cord, 30 mg/kg i.p. once a day for 3 days, versus vehicle group
Experimental: Given the critical role of microglial activation in inflammation-mediated responses, we investigated whether Compound 14e could modulate microglial activity in the spinal dorsal horn of mice following Complete Freund’s Adjuvant (CFA) injection. First, we assessed the expression of the microglial marker Iba1 in the L4–L6 segments of the spinal cord.
FIGURE 4 Compound 14e prevented the upregulation of Iba1 in CFA mice.
The mice were anesthetized with isoflurane, and 40 μL of CFA (Sigma-Aldrich) was intraplantarly injected into the mid-plantar surface of their left hind paws. As for the control group, an equivalent volume of normal saline was injected ([Jiang et al., 2018]).
The compound 14e were diluted with 10% DMSO, and were intraperitoneally injected with 30 mg/kg into the mice once a day for 3 days after CFA. The dosage of compound 14e was determined based on our preliminary experiments.
Animals were deeply anesthetized with 1% pentobarbital sodium (0.1 g/kg, i. p.) and the ipsilateral spinal cord in the lumbar enlargement site was rapidly separated and homogenized in ice-cold lysis buffer containing 50 mM Tris-HCl (pH 7.4), 150 mM NaCl, 1% NP-40, 0.1% SDS, 1 mM phenylmethylsulfonyl fluoride and protease phosphatase inhibitor (Solarbio Company, China). […] The protein concentrations were measured using a bicinchoninic acid (BCA) kit (Pierce Biotechnology Inc.). […]

## O=C1COc2ccc(NC(=O)c3cccc(-c4cn(Cc5c(F)cccc5Cl)nn4)c3)cc2N1 [Compound 14e]
TNF-α
  CFA-induced levels of TNF-α: significantly decreased
KM mice
  acute toxicity, overall: does not cause noticeable toxicity
  organ indices (heart, liver, spleen, lung, kidneys): remained stable
  serum ALT level: did not significantly affect
  serum AST level: did not significantly affect
KM mice; versus solvent control
  body weight: no significant changes
Iba1
  Iba1 protein level (Western blot): significantly reduced
